Experimental data reported in patent US5106407A, “Iodones and methods for antimicrobial use” (priority 1989, dated 1992).

Key:
[1] = tested on: Selenastrum capricornutum; test: algaecide test, inhibition of growth; format: cell-based; details: 96 hr incubation, read-out: growth of the algae, Percent of Control
Experimental: Using a Coulter Counter, the growth of this algea was measured after 96 hr incubation with various levels of biocide, i.e., (2-nitrophenyl)-iodonium 2,2-dimethyl-4,6-dioxo-1,3-dioxan-5-ylide.

[2] = tested on: bacteria listed in Table I, Klebsiella oxytoca, Enterobacter gergoviae, Pseudomonas putida #1, and Pseudomonas putida #2; test: protein shampoo preservation test
Experimental: (§1) Fifty gram aliquots of the latex were placed in sterile bottles and one hundred gram aliquots of the diluted cutting oil were placed in 250-mL Erlenmeyer flasks. An appropriate amount of a fresh 1 percent stock solution of (2-nitrophenyl)-iodonium 2,2-dimethyl-4,6-dioxo-1,3-dioxan-5-ylide in acetone-water was added to achieve the desired final concentrations (see Tables 5 and 6). A small portion of the respective latex or cutting oil preparation was then streaked onto Tryptic Soy Agar (TSA) petri plates using sterile cotton swabs to determine whether the preparations were sterile. If the particular preparation was sterile, it was then inoculated with an appropriate volume (0.1 mL for the latex and 0.2 mL for the cutting oil) of a mixture of equal aliquots of 24 hr cultures of each of the bacterial organisms listed in Table 1 (not the fungi and yeast). The latex samples were incubated at 30° C. and the cutting oils were agitated on a rotary shaker at room temperature. After 24 hr, all samples were again streaked on TSA. All plates were then incubated at 30° C. for 48 hr and then rated 1 to 10 according to the growth rating system described in Table 4.
(§2) The results from this first set of streaks after inoculation are listed in the columns labeled streak number 1 in Tables 5 and 6. Samples with a rating of 3 or less from streak number 1 were reinoculated as described for the first inoculation above. Samples with a rating of 4 or greater were not reinoculated. After another 24 hr all samples were again restreaked on TSA agar. The results from these second streaks were labeled streak number 2 in Tables 5 and 6. Samples were reinoculated and restreaked in this fashion for a maximum of 10 streaks. Any samples with two streaks in a row with a ten rating were not restreaked again.
(§3) The ingredients of the hand creme, hand lotion, and protein shampoo are listed in Tables 7, 8 and 9, respectively. In the cosmetic preservative procedures, the stock solution of (2-nitrophenyl)-iodonium 2,2-dimethyl-4,6-dioxo-1,3-dioxan-5-ylide) was made in dimethylformamide (DMF)/water solution. In addition to the bacteria listed in Table I, the following bacteria were also included in the inocula: Klebsiella oxytoca, Enterobacter gergoviae, Pseudomonas putida #1, and Pseudomonas putida #2.

[3] = tested on: bacteria listed in Table I, Klebsiella oxytoca, Enterobacter gergoviae, Pseudomonas putida #1, and Pseudomonas putida #2; test: hand lotion preservation test;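 further: colony count scale from 1 for no colonies up to 10 for a solid mass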
Experimental: as §1, §2, §3

[4] = tested on: bacteria listed in Table I, Klebsiella oxytoca, Enterobacter gergoviae, Pseudomonas putida #1, and Pseudomonas putida #2; test: hand creme preservation test
Experimental: as §1, §2, §3

Compound: CC1(C)OC(=O)[C-]([I+]c2ccccc2[N+](=O)[O-])C(=O)O1 [Example 19, (2-Nitrophenyl)-iodonium 2,2-dimethyl-4,6-dioxo-1,3-dioxan-5-ylide]
- activity at 0.01 ppm ([1]; 0.01 ppm): 77%
- activity at 0.1 ppm ([1]; 0.1 ppm): 2.4%
- activity at 1 ppm ([1]; 1.0 ppm): 0.65%
- activity at 10 ppm ([1]; 10 ppm): 0.59%
- activity at 32 ppm ([1]; 32 ppm): 0.53%
- growth rating ([2]; 10 ppm, streak 1): 1 (0)
- growth rating ([2]; 10 ppm, streak 2): 1 (0)
- growth rating ([2]; 10 ppm, streak 10): 1 (0)
- growth rating ([2]; 25 ppm, streak 1): 1 (0)
- growth rating ([2]; 25 ppm, streak 2): 1 (0)
- growth rating ([2]; 25 ppm, streak 3): 1 (0)
- growth rating ([2]; 25 ppm, streak 4): 1 (0)
- growth rating ([2]; 25 ppm, streak 5): 1 (0)
- growth rating ([2]; 25 ppm, streak 6): 1 (0)
- growth rating ([2]; 25 ppm, streak 7): 1 (0)
- growth rating ([2]; 25 ppm, streak 8): 1 (0)
- growth rating ([2]; 25 ppm, streak 9): 1 (0)
- growth rating ([2]; 25 ppm, streak 10): 1 (0)
- growth rating ([2]; 50 ppm, streak 1): 1 (0)
- growth rating ([2]; 50 ppm, streak 2): 1 (0)
- growth rating ([2]; 50 ppm, streak 3): 1 (0)
- growth rating ([2]; 50 ppm, streak 4): 1 (0)
- growth rating ([2]; 50 ppm, streak 5): 1 (0)
- growth rating ([2]; 50 ppm, streak 6): 1 (0)
- growth rating ([2]; 50 ppm, streak 7): 1 (0)
- growth rating ([2]; 50 ppm, streak 8): 1 (0)
- growth rating ([2]; 50 ppm, streak 9): 1 (0)
- growth rating ([2]; 50 ppm, streak 10): 1 (0)
- growth rating ([2]; 100 ppm, streak 1): 1 (0)
- growth rating ([2]; 100 ppm, streak 2): 1 (0)
- growth rating ([2]; 100 ppm, streak 3): 1 (0)
- growth rating ([2]; 100 ppm, streak 4): 1 (0)
- growth rating ([2]; 100 ppm, streak 5): 1 (0)
- growth rating ([2]; 100 ppm, streak 6): 1 (0)
- growth rating ([2]; 100 ppm, streak 7): 1 (0)
- growth rating ([2]; 100 ppm, streak 8): 1 (0)
- growth rating ([2]; 100 ppm, streak 9): 1 (0)
- growth rating ([2]; 100 ppm, streak 10): 4 (11-25)
- growth rating ([3]; 10 ppm, streak 1): 1 (0)
- growth rating ([3]; 10 ppm, streak 2): 1 (0)
- growth rating ([3]; 10 ppm, streak 3): 2 (1-4)
- growth rating ([3]; 10 ppm, streak 6): 9
- growth rating ([3]; 10 ppm, streak 8): 9
- growth rating ([3]; 10 ppm, streak 9): 10
- growth rating ([3]; 10 ppm, streak 10): 10
- growth rating ([3]; 25 ppm, streak 1): 1 (0)
- growth rating ([3]; 25 ppm, streak 2): 1 (0)
- growth rating ([3]; 25 ppm, streak 3): 1 (0)
- growth rating ([3]; 25 ppm, streak 4): 1 (0)
- growth rating ([3]; 25 ppm, streak 5): 1 (0)
- growth rating ([3]; 25 ppm, streak 6): 1 (0)
- growth rating ([3]; 25 ppm, streak 7): 1 (0)
- growth rating ([3]; 25 ppm, streak 8): 1 (0)
- growth rating ([3]; 25 ppm, streak 9): 1 (0)
- growth rating ([3]; 25 ppm, streak 10): 2 (1-4)
- growth rating ([3]; 50 ppm, streak 1): 1 (0)
- growth rating ([3]; 50 ppm, streak 2): 1 (0)
- growth rating ([3]; 50 ppm, streak 3): 1 (0)
- growth rating ([3]; 50 ppm, streak 4): 1 (0)
- growth rating ([3]; 50 ppm, streak 5): 1 (0)
- growth rating ([3]; 50 ppm, streak 6): 1 (0)
- growth rating ([3]; 50 ppm, streak 7): 1 (0)
- growth rating ([3]; 50 ppm, streak 8): 1 (0)
- growth rating ([3]; 50 ppm, streak 9): 1 (0)
- growth rating ([3]; 50 ppm, streak 10): 1 (0)
- growth rating ([3]; 100 ppm, streak 1): 1 (0)
- growth rating ([3]; 100 ppm, streak 2): 1 (0)
- growth rating ([3]; 100 ppm, streak 3): 1 (0)
- growth rating ([3]; 100 ppm, streak 4): 1 (0)
- growth rating ([3]; 100 ppm, streak 5): 1 (0)
- growth rating ([3]; 100 ppm, streak 6): 1 (0)
- growth rating ([3]; 100 ppm, streak 7): 1 (0)
- growth rating ([3]; 100 ppm, streak 8): 1 (0)
- growth rating ([3]; 100 ppm, streak 9): 1 (0)
- growth rating ([3]; 100 ppm, streak 10): 1 (0)
- growth rating ([4]; 10 ppm, streak 1): 1 (0)
- growth rating ([4]; 10 ppm, streak 2): 1 (0)
- growth rating ([4]; 10 ppm, streak 3): 1 (0)
- growth rating ([4]; 10 ppm, streak 4): 1 (0)
- growth rating ([4]; 10 ppm, streak 5): 1 (0)
- growth rating ([4]; 10 ppm, streak 6): 5 (26-50)
- growth rating ([4]; 10 ppm, streak 7): 1 (0)
- growth rating ([4]; 10 ppm, streak 8): 8 (210-300)
- growth rating ([4]; 10 ppm, streak 9): 1 (0)
- growth rating ([4]; 10 ppm, streak 10): 7 (101-200)
- growth rating ([4]; 50 ppm, streak 1): 1 (0)
- growth rating ([4]; 50 ppm, streak 2): 1 (0)
- growth rating ([4]; 50 ppm, streak 3): 1 (0)
- growth rating ([4]; 50 ppm, streak 4): 1 (0)
- growth rating ([4]; 50 ppm, streak 5): 1 (0)
- growth rating ([4]; 50 ppm, streak 6): 1 (0)
- growth rating ([4]; 50 ppm, streak 7): 1 (0)
- growth rating ([4]; 50 ppm, streak 8): 1 (0)
- growth rating ([4]; 50 ppm, streak 9): 1 (0)
- growth rating ([4]; 50 ppm, streak 10): 7 (101-200)
- growth rating ([4]; 100 ppm, streak 1): 1 (0)
- growth rating ([4]; 100 ppm, streak 2): 1 (0)
- growth rating ([4]; 100 ppm, streak 3): 1 (0)
- growth rating ([4]; 100 ppm, streak 4): 1 (0)
- growth rating ([4]; 100 ppm, streak 5): 1 (0)
- growth rating ([4]; 100 ppm, streak 6): 1 (0)
- growth rating ([4]; 100 ppm, streak 7): 1 (0)
- growth rating ([4]; 100 ppm, streak 8): 1 (0)
- growth rating ([4]; 100 ppm, streak 9): 4 (11-25)
- growth rating ([4]; 100 ppm, streak 10): 7 (101-200)
